From ChEMBL document CHEMBL1201862, “PubChem BioAssay data set” (2004)
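Assay format: 96-well plates, 48-hour exposure. The concentration for 50% growth inhibition is given as GI50.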 Active and inactive are the calls of the source. Cut-off read from the data, not from the text of the source: active = GI50 up to about 1.1 µM and inactive = higher.

Tests used:
Experiment in all cases: growth of human tumour cells (NCI), 48 h
NCI-H460 = system: NCI-H460
Hs-578T = system: Hs-578T
RXF 393 = system: RXF 393
SK-MEL-28 = system: SK-MEL-28
RPMI-8226 = system: RPMI-8226
SF-295 = system: SF-295
BT-549 = system: BT-549
NCI-H522 = system: NCI-H522
LOX IMVI = system: LOX IMVI
HCT-15 = system: HCT-15
OVCAR-8 = system: OVCAR-8
MDA-N = system: MDA-N
SW-620 = system: SW-620
IGROV-1 = system: IGROV-1
OVCAR-5 = system: OVCAR-5
PC-3 = system: PC-3
U-251 = system: U-251
A498 = system: A498
HOP-62 = system: HOP-62
SF-268 = system: SF-268
MDA-MB-231 = system: MDA-MB-231
CCRF-CEM = system: CCRF-CEM
SN12C = system: SN12C
SK-OV-3 = system: SK-OV-3
SK-MEL-2 = system: SK-MEL-2
COLO 205 = system: COLO 205
HT-29 = system: HT-29
HCC 2998 = system: HCC 2998
NCI-H23 = system: NCI-H23
KM12 = system: KM12
M14 = system: M14
DU-145 = system: DU-145
UACC-62 = system: UACC-62
UACC-257 = system: UACC-257
T47D = system: T47D
CAKI-1 = system: CAKI-1
UO-31 = system: UO-31
HCT-116 = system: HCT-116
Malme-3M = system: Malme-3M
HOP-92 = system: HOP-92
ACHN = system: ACHN
MDA-MB-435 = system: MDA-MB-435
OVCAR-4 = system: OVCAR-4
HL-60 = system: HL-60
A549 = system: A549
SF-539 = system: SF-539
K562 = system: K562
786-0 = system: 786-0
SNB-75 = system: SNB-75
SNB-19 = system: SNB-19
EKVX = system: EKVX
NCI/ADR-RES = system: NCI/ADR-RES
SK-MEL-5 = system: SK-MEL-5
NCI-H226 = system: NCI-H226
SR = system: SR
TK-10 = system: TK-10
MOLT-4 = system: MOLT-4
MCF7 = system: MCF7
OVCAR-3 = system: OVCAR-3
KM-20L2 = system: KM-20L2
M19-MEL = system: M19-MEL
DMS-273 = system: DMS-273
DLD-1 = system: DLD-1
LXFL 529 = system: LXFL 529

Measured: GI50

O=C1/C(=C\c2ccc(-c3ccc(Cl)cc3Cl)o2)SC2NC(COc3ccc(Cl)cc3)=NN12 (stereo unspecified)
34.9 µM: HCT-15
inactive: NCI-H460 38.5 µM | Hs-578T 25.5 µM | RXF 393 27.5 µM | SK-MEL-28 > 100 µM | RPMI-8226 38.4 µM | SF-295 45.3 µM | BT-549 47 µM | NCI-H522 55 µM | LOX IMVI 52.1 µM | OVCAR-8 38.3 µM | MDA-N 44.2 µM | SW-620 60.7 µM | IGROV-1 29.9 µM | OVCAR-5 > 100 µM | PC-3 64.7 µM | U-251 21.4 µM | A498 2.19 µM | HOP-62 80.4 µM | SF-268 36 µM | MDA-MB-231 44 µM | CCRF-CEM 16 µM | SN12C 72.1 µM | SK-OV-3 88.3 µM | SK-MEL-2 50.5 µM | COLO 205 41.5 µM | HT-29 79.4 µM | HCC 2998 41.1 µM | NCI-H23 53.2 µM | KM12 55.5 µM | M14 > 100 µM | DU-145 65.6 µM | UACC-62 34 µM | UACC-257 21.1 µM | T47D 27.2 µM | CAKI-1 51.1 µM | UO-31 > 100 µM | HCT-116 48.4 µM | Malme-3M 42.2 µM | HOP-92 26.5 µM | ACHN 53.7 µM | MDA-MB-435 38.7 µM | OVCAR-4 45.3 µM | HL-60 22.5 µM | A549 69.7 µM | SF-539 49 µM | K562 48.9 µM | 786-0 51.2 µM | SNB-75 > 100 µM | SNB-19 53.7 µM | EKVX 32.4 µM | NCI/ADR-RES 37.5 µM | SK-MEL-5 36.7 µM | NCI-H226 20.2 µM | SR 33.3 µM | TK-10 2.96 µM | MOLT-4 31.8 µM | MCF7 33.4 µM | OVCAR-3 36 µM

N#CC(c1ccnc(Cl)n1)c1nc2ccccc2s1 (stereo unspecified)
3.44 µM: HCT-15
active: CCRF-CEM 0.063 µM
inactive: NCI-H460 3.61 µM | Hs-578T 7.74 µM | RXF 393 4.44 µM | SK-MEL-28 10.8 µM | RPMI-8226 3.54 µM | SF-295 8.49 µM | BT-549 3.29 µM | NCI-H522 1.6 µM | LOX IMVI 3.55 µM | OVCAR-8 3.78 µM | MDA-N 3.38 µM | SW-620 4.3 µM | IGROV-1 3.65 µM | OVCAR-5 9.53 µM | PC-3 3.78 µM | U-251 3.38 µM | A498 15.8 µM | HOP-62 18.7 µM | SF-268 4.98 µM | MDA-MB-231 2.91 µM | SN12C 2.87 µM | SK-OV-3 3.21 µM | SK-MEL-2 3.52 µM | COLO 205 10.4 µM | HT-29 2.88 µM | HCC 2998 25.4 µM | NCI-H23 2.48 µM | KM12 4.37 µM | M14 3.76 µM | DU-145 19.6 µM | UACC-62 3.21 µM | UACC-257 6.19 µM | T47D 4.19 µM | CAKI-1 3.87 µM | UO-31 4.07 µM | HCT-116 2.58 µM | Malme-3M 2.7 µM | HOP-92 2.77 µM | ACHN 13.7 µM | MDA-MB-435 3.92 µM | OVCAR-4 6.9 µM | HL-60 1.17 µM | A549 8.59 µM | SF-539 3.88 µM | K562 2 µM | 786-0 3.78 µM | SNB-75 2.36 µM | SNB-19 4.35 µM | EKVX 20.2 µM | NCI/ADR-RES 2.67 µM | SK-MEL-5 1.33 µM | NCI-H226 3.76 µM | SR 3.03 µM | TK-10 7.33 µM | MOLT-4 3.55 µM | MCF7 3.68 µM | OVCAR-3 5.55 µM

O=C1CSC(=S)N1/N=C/c1ccc(Cl)c([N+](=O)[O-])c1
inactive: NCI-H460 41.3 µM | Hs-578T 37.8 µM | RXF 393 33.8 µM | SK-MEL-28 27.5 µM | RPMI-8226 21.5 µM | SF-295 24.8 µM | BT-549 19.8 µM | NCI-H522 18.3 µM | LOX IMVI 22.2 µM | OVCAR-8 32.9 µM | MDA-N 22.4 µM | SW-620 33.7 µM | IGROV-1 36.7 µM | OVCAR-5 > 100 µM | PC-3 24.6 µM | U-251 18.5 µM | A498 61 µM | HOP-62 30.6 µM | SF-268 19.6 µM | MDA-MB-231 21.3 µM | CCRF-CEM 7.35 µM | SN12C 25.8 µM | SK-OV-3 36.6 µM | SK-MEL-2 29.8 µM | COLO 205 43.7 µM | HT-29 39.6 µM | HCC 2998 11.9 µM | NCI-H23 17.9 µM | KM12 34.2 µM | M14 18.8 µM | DU-145 36.6 µM | UACC-62 25.9 µM | UACC-257 23.8 µM | T47D 23 µM | CAKI-1 33.7 µM | UO-31 27.6 µM | HCT-116 23 µM | Malme-3M 19.1 µM | HOP-92 27.6 µM | ACHN 23.3 µM | MDA-MB-435 20.7 µM | OVCAR-4 22.5 µM | HL-60 24.2 µM | A549 46.2 µM | SF-539 32.8 µM | K562 38.3 µM | 786-0 38.6 µM | SNB-75 45 µM | SNB-19 22.9 µM | EKVX 27.9 µM | NCI/ADR-RES 22.6 µM | SK-MEL-5 53.6 µM | NCI-H226 36.4 µM | SR 22.5 µM | TK-10 53.5 µM | MOLT-4 31.1 µM | MCF7 13.3 µM | OVCAR-3 20.1 µM
20.2 µM: HCT-15

COc1cc([C@@H]2c3cc4c(cc3[C@@H](NCCCN(C)C)[C@H]3COC(=O)[C@H]23)OCO4)cc(OC)c1O
0.847 µM: HCT-15
active: NCI-H460 0.0252 µM | RPMI-8226 0.48 µM | SF-295 0.17 µM | NCI-H522 0.525 µM | LOX IMVI 0.359 µM | KM-20L2 0.834 µM | SW-620 0.381 µM | IGROV-1 0.337 µM | U-251 0.223 µM | CCRF-CEM 0.0785 µM | SK-OV-3 0.248 µM | HCC 2998 0.51 µM | KM12 0.632 µM | M19-MEL 0.569 µM | UO-31 0.44 µM | Malme-3M 0.242 µM | ACHN 0.11 µM | HL-60 0.0447 µM | DMS-273 0.141 µM | SF-539 0.399 µM | SNB-19 0.376 µM | EKVX 0.526 µM | SK-MEL-5 0.264 µM | MOLT-4 0.0436 µM | OVCAR-3 0.729 µM
inactive: OVCAR-5 1.34 µM | HT-29 1.62 µM

COc1ccc(NCc2cc(OC)c(OC)c(OC)c2)cc1
inactive: HOP-92 1.39 µM | OVCAR-4 17.3 µM | EKVX 4.74 µM
active: NCI-H460 0.385 µM | Hs-578T 0.641 µM | RXF 393 0.372 µM | DLD-1 0.421 µM | SK-MEL-28 0.396 µM | RPMI-8226 0.612 µM | SF-295 0.294 µM | NCI-H522 0.307 µM | LXFL 529 0.408 µM | LOX IMVI 0.417 µM | OVCAR-8 0.716 µM | MDA-N 0.0867 µM | KM-20L2 0.238 µM | SW-620 0.215 µM | IGROV-1 0.582 µM | PC-3 0.912 µM | U-251 0.431 µM | A498 0.521 µM | HOP-62 0.468 µM | SF-268 0.698 µM | MDA-MB-231 0.596 µM | SN12C 0.818 µM | SK-OV-3 0.463 µM | SK-MEL-2 0.466 µM | COLO 205 0.291 µM | HT-29 0.312 µM | HCC 2998 0.362 µM | NCI-H23 0.973 µM | KM12 0.201 µM | M14 0.265 µM | DU-145 0.857 µM | UACC-62 0.274 µM | HCT-116 0.408 µM | Malme-3M 0.488 µM | MDA-MB-435 0.0711 µM | HL-60 0.205 µM | A549 0.597 µM | DMS-273 0.178 µM | SF-539 0.265 µM | 786-0 0.583 µM | SNB-19 0.698 µM | NCI/ADR-RES 0.366 µM | SK-MEL-5 0.293 µM | SR 0.228 µM | MOLT-4 0.493 µM | MCF7 0.491 µM | OVCAR-3 0.255 µM
0.18 µM: HCT-15
